Measurements taken from ChEMBL document CHEMBL1152011, “The first protoberberine alkaloid analogue with in vivo antimalarial activity” (Bioorg Med Chem Lett, 1994).
The source made the active and inactive calls. No cut-off for these calls is given here.

Assays:
Format in all cases: functional, organism-based
Plasmodium falciparum [1] = assay: In vitro inhibition of multidrug-resistant Plasmodium falciparum K1; […]
Mus musculus = assay: In vivo antimalarial activity against Plasmodium chabaudi in BALB/c mice (Mus musculus) at a dose of 0.25 mg/kg; active; design: dose 0.25 mg/kg
Plasmodium falciparum [2] = assay: In vitro inhibition of multidrug-resistant Plasmodium falciparum K1

| Compound | IC50 (Plasmodium falciparum [1]) [µg/mL] | Activity (Mus musculus) | IC50 (Plasmodium falciparum [2]) [µg/mL] |
| --- | --- | --- | --- |
| COc1cc2c(cc1OC)-c1cc3cc(OC)c(OC)cc3c[n+]1CC2.[Cl-] | 0.8 | Active |  |
| COc1cc2c(cc1OC)-c1c(N)c3cc(OC)c(OC)cc3c[n+]1CC2.[Cl-] | 0.8 | Active |  |
| COc1ccc2cc3[n+](cc2c1OC)CCc1cc2c(cc1-3)OCO2.[Cl-] [BERBERINE CHLORIDE] |  |  | 0.36 |
| COc1cc2c(cc1OC)-c1cc3c(OC)c(OC)ccc3c[n+]1CC2.[Cl-] | 0.8 |  |  |
